Consider five compounds from US9328134B2, “Carbohydrate phosphonate derivatives as modulators of glycosylation” (AMGEN INC., priority 2013, dated 2016).

Data set [1] concerns cell surface protein fucosylation in CS-9 CHO cells. Kind of data set: Cell Surface Protein Fucosylation Assay (FACS with FITC-LCA). Format: cell-based, Chinese hamster. The settings on record: Cricetulus griseus, 72 h, 3 days. The procedure: Cell Surface Protein Fucosylation Assay
(§1) The effect of the example compounds on cell surface protein fucosylation was measured in CS-9 CHO cells. A range of amounts of example compound was added to produce various concentrations (100 μM-0.005 uM). These were added to cells grown in batch production CHO cell media in Costar 96-well clear round bottom polypropylene plates and incubated at 37° C. in the presence of 5% CO2. Commercially available standard batch production serum free CHO media such as CD OptiCHO (Invitrogen), Power CHO (Lonza), or ExCell 325 PF CHO (commercially available from Sigma Aldrich) may be used in accordance with the assay. After 3 days, cells were analyzed by fluorescence-activated cell sorting (FACS) using FITC-Lens culinaris agglutinin (FITC-LCA, Vector Laboratories Cat#FL-1041) according to the following procedure. After 3 days, 50 uL of FITC-LCA (3 ug/mL) was added to columns 1-11 and plates were incubated for 30 minutes. Plates were then centrifuged briefly (2,000 rpm), and the medium was aspirated away. Cells were washed three times with PBS with 1% BSA, resuspended in the same buffer, and analyzed on the BD LSRii instrument. Cells were simultaneously assayed for viability using propidium iodide.
The following table includes IC50 values obtained using the procedures set forth above for the Example compounds described herein.

Data set [2] has as its system CHO cells expressing anti-TRAIL IgG1 antibody. The data set can be described thus: Production cultures to generate antibodies for glycan analysis (HILIC). Format: cell-based, Chinese hamster. The procedure:
Production Cultures to Generate Antibodies for Glycan Analysis
CHO cells expressing anti-TRAIL IgG1 antibody were seeded into serum-free growth medium in deep 24-well plates via 1:5 dilution. Any medium suitable for growth of CHO cells (i.e. PowerCHO by Lonza or OptiCHO by Invitrogen) can be used. The fucosylation inhibitor Example 1 compound was added to the cultures at inoculation at 5, 10, 20, 40, 80, 160 and 320 uM via 1:1000 dilution of stock solutions in DMSO. The cultures were placed into a shaking incubator (50 mm orbital diameter, 36° C., 5% CO2, 220 rpm). The growth and viability of the cultures were monitored throughout the length of the production assay. The cells were fed with feed medium and an amino acid supplement on days 3, 6 and 8. Cultures were harvested on day 10 via centrifugation and spent medium supernatants were submitted for titer analysis and protein A purification. Glycan analysis of purified antibodies was conducted via the HILIC assay.
To test whether daily doses of the Example 1 fucosylation inhibitor would result in higher inhibition profile, CHO cells expressing anti TRAIL IgG1 antibody were seeded into serum-free growth medium in deep 24-well plates via 1:5 dilution. The fucosylation inhibitor compound Example 1 (FIG. 2) and compound Example 3 (FIG. 3) were added to the cultures on a daily basis at 5, 10, 20, 40, 60, 80, and 100 uM levels via 1:1000 dilution of stock solutions in DMSO. The cultures were placed into a shaking incubator (50 mm orbital diameter, 36° C., 5% CO2, 220 rpm). The growth and viability of cultures were monitored throughout the length of the production assay. Starting on day 3, cells were centrifuged at 1000 rpm for 5 minutes, a fraction of the spent medium was removed and cells were replenished with the equivalent volume of production medium. Cultures were harvested on day 10 via a 10 minute centrifugation at 1000 rpm. Spent medium fractions collected during the course of the experiment were submitted for titer analysis. Spent medium fractions corresponding to select time-points were also purified on protein A. Glycan analysis of the purified antibodies is shown in FIGS. 2 and 3.
The PNGase F (New England Biolabs) enzymatically-released N-linked glycans from protein-purified anti-TRAIL IgG1 antibody were labeled with 2-aminobenzoic acid (2-AA) and separated by HILIC (hydrophilic interaction liquid chromatography) in-line with a fluorescence detector. The separation was performed using a Waters Acquity UPLC (Waters, Milford, Mass.). In-line MS, using an ion trap mass spectrometer (LTQ; Thermo Scientific, Waltham, Mass.) in positive mode, was incorporated to accommodate mass determination of species. Glycans were injected and bound to the column in high organic conditions and were then eluted with an increasing gradient of an aqueous ammonium formate buffer. Fast separation times were achieved using a […] small particle column format (Acquity UPLC BEH Glycan Column, 2.1×100 mm; Waters, Milford, Mass.). Total runtime including column re-equilibration for the MS compatible separation was 30 minutes. Glycan from cells treated with 320 uM Example 1 compound was 64% fucosylated vs. 77% for DMSO control, and contained 13% high mannose vs. 12% for DMSO control.

Data set [3] has as its system CS-9 CHO cells. The data set can be described thus: Cell viability by propidium iodide, run with the fucosylation assay. Format: cell-based, Chinese hamster. As to conditions: Cricetulus griseus, 72 h, 3 days. The procedure:
as §1

Assay in data set [4]: as above
The settings on record: Chinese hamster, 100 μM, CS-9 CHO cells, read-out: Cell Viability max activity at 100 μM. It counts as cell-based, Chinese hamster. On the procedure:
as §1

The subject of data set [5] is cell surface protein high mannose in CS-9 CHO cells. The data set can be described thus: Assay for Cell Surface Protein High Mannose (FACS with FITC-labeled Concanavilin A). Format: cell-based, Chinese hamster. The settings on record: Cricetulus griseus, 72 h, 3 days. The procedure:
Assay for Cell Surface Protein High Mannose
as §1, with “high mannose” for “fucosylation”, “FITC-labeled Concanavilin A” for “FITC-Lens culinaris agglutinin (FITC-LCA, Vector Laboratories Cat#FL-1041)”

The subject of data set [6] is CS-9 CHO cells. Kind of data set: Cell viability by propidium iodide, run with the high mannose assay. It counts as cell-based, Chinese hamster. As to conditions: Cricetulus griseus, 72 h, 3 days. The procedure: as §1, with “high mannose” for “fucosylation”, “FITC-labeled Concanavilin A” for “FITC-Lens culinaris agglutinin (FITC-LCA, Vector Laboratories Cat#FL-1041)”

Assay in data set [7]: as above
It counts as cell-based, Chinese hamster. The settings on record: Chinese hamster, 100 μM, CS-9 CHO cells, read-out: Cell Viability max activity at 100 μM. On the procedure: as §1, with “high mannose” for “fucosylation”, “FITC-labeled Concanavilin A” for “FITC-Lens culinaris agglutinin (FITC-LCA, Vector Laboratories Cat#FL-1041)”

A short description of data set [8]: Stability of inhibitor in the culture medium. It counts as physicochemical. As to conditions: cell culture medium.

As for `CC(=O)O[C@H]1[C@H](OC(C)=O)[C@H](CP(=O)(OCOC(=O)C(C)(C)C)OCOC(=O)C(C)(C)C)O[C@@H](C(F)(F)F)[C@H]1OC(C)=O` [Example 3, (2R,3S,4R,5S,6R)-2-((bis((pivaloyloxy)-methoxy)phosphoryl)methyl)-6-(trifluoromethyl)tetrahydro-2H-pyran-3,4,5-triyl triacetate], the IC50 (as a rule, the concentration that gives 50% inhibition) in data set [1] is 7 µM; in the data set with CS-9 CHO cells [3], greater than 100 µM. In data set [2] (added to cell culture media on a daily basis, 5-100 uM), the “Incorporation of inhibitor into antibody glycan” value was “some incorporation of part of the inhibitor”. The viability – broadly, a read-out of living cells in per cent, often relative to untreated cells – at 3 days, 100 µM in data set [4] is 90%.

Turning to `CC(=O)N[C@@H]1[C@@H](OC(C)=O)[C@H](OC(C)=O)[C@@H](COC(C)=O)O[C@@H]1CP(=O)(OCOC(=O)C(C)(C)C)OCOC(=O)C(C)(C)C` [Example 5, (((((2S,3R,4R,5S,6R)-3-acetamido-4,5-diacetoxy-6-(acetoxymethyl)tetrahydro-2H-pyran-2-yl)methyl)phosphoryl)bis(oxy))bis(methylene)bis(2,2-dimethylpropanoate)], the IC50 in data set [5] is 3.4 µM; in the data set on CS-9 CHO cells [6], greater than 100 µM. Also, the viability at 3 days, 100 µM in data set [7] stood at 88%.

`CC(=O)OC[C@H]1O[C@H](CP(=O)(OCOC(=O)C(C)(C)C)OCOC(=O)C(C)(C)C)[C@@H](OC(C)=O)[C@@H](OC(C)=O)[C@@H]1OC(C)=O` [Example 4, (2R,3R,4S,5S,6S)-2-(acetoxymethyl)-6-((bis((pivaloyloxy)methoxy)phosphoryl)methyl)tetrahydro-2H-pyran-3,4,5-triyl triacetate]: the IC50 was 33.1 µM in data set [5] and greater than 100 µM in the data set with CS-9 CHO cells [6]. In data set [7], the viability at 3 days, 100 µM is 92%.

Regarding `CC(=O)O[C@@H]1[C@H](OC(C)=O)[C@H](C)O[C@H](CP(=O)(OCOC(=O)C(C)(C)C)OCOC(=O)C(C)(C)C)[C@H]1OC(C)=O` [Example 1, (2S,3S,4R,5R,6S)-2-((bis((pivaloyloxy)methoxy)phosphoryl)methyl)-6-methyltetrahydro-2H-pyran-3,4,5-triyl triacetate], the 50% inhibitory concentration (IC50) in data set [1] was 21 µM; in the data set with CS-9 CHO cells [3] it was greater than 100 µM. Further, the “Incorporation of inhibitor molecule into the glycan” value in data set [2] (320 uM, HILIC with in-line MS) is given as “No trace of the inhibitor molecule was detectable in the glycan”. The “Glycan high mannose content” value in data set [2] (320 uM, anti-TRAIL IgG1 glycan, HILIC, DMSO control 12%) amounted to 13%. This compound yielded a Glycan fucosylated in data set [2] (320 uM, anti-TRAIL IgG1 glycan, HILIC, DMSO control 77%) of 64%. Besides, the inhibition (as a rule, the relative decrease from the control value, in per cent) at 320 µM in data set [2] (Cricetulus griseus, CHO, 240 h, 320 uM added at inoculation, anti-TRAIL IgG1, harvest day 10, read-out: Maximum inhibition of fucosylation (afucosylation)) was roughly 10%. In data set [8], the “Stability of inhibitor in the medium” value was “limited stability”. In addition, the viability at 3 days, 100 µM in data set [4] came to 94%.

For `CC(=O)OCOP(=O)(C[C@H]1O[C@@H](C)[C@@H](OC(C)=O)[C@@H](OC(C)=O)[C@@H]1OC(C)=O)OCOC(C)=O` [Example 2, (2S,3S,4R,5R,6S)-2-((bis(acetoxymethoxy)phosphoryl)methyl)-6-methyltetrahydro-2H-pyran-3,4,5-triyl triacetate], the half-maximal inhibitory concentration (IC50) was 44 µM in data set [1] and greater than 100 µM with CS-9 CHO cells [3]. Further, the viability at 3 days, 100 µM in data set [4] is 103%.
